Activity calls are given as the source filed them. No cut-off for these calls is given here.
Key:
Mus musculus [1] = assay: Antiinflammatory activity against carrageenan-induced paw oedema in mouse at 1 mg/kg, ip treated 30 mins before carrageenan challenge measured after 5 hrs by plethysmometry analysis; format: functional; details: route intraperitoneal
Mus musculus [2] = assay: Antiinflammatory activity against bradykinin-induced paw oedema in mouse at 1 mg/kg, ip treated 30 mins before bradykinin challenge measured after 60 mins by plethysmometry analysis; format: functional; details: route intraperitoneal
Mus musculus [3] = assay: Antiinflammatory activity against bradykinin-induced paw oedema in mouse at 1 mg/kg, ip treated 30 mins before bradykinin challenge measured after 120 mins by plethysmometry analysis; format: functional; details: route intraperitoneal
Mus musculus [4] = assay: Antiinflammatory activity against carrageenan-induced paw oedema in mouse at 1 mg/kg, ip treated 30 mins before carrageenan challenge measured after 6 hrs by plethysmometry analysis; format: functional; details: route intraperitoneal
Mus musculus [5] = assay: Antiinflammatory activity against bradykinin-induced paw oedema in mouse at 1 mg/kg, ip treated 30 mins before bradykinin challenge measured after 15 mins by plethysmometry analysis; format: functional; details: route intraperitoneal
Mus musculus [6] = assay: Antiinflammatory activity against bradykinin-induced paw oedema in mouse at 1 mg/kg, ip treated 30 mins before bradykinin challenge measured after 240 mins by plethysmometry analysis; format: functional; details: route intraperitoneal
Mus musculus [7] = assay: Antiinflammatory activity against bradykinin-induced paw oedema in mouse at 1 mg/kg, ip treated 30 mins before bradykinin challenge measured after 30 mins by plethysmometry analysis; format: functional; details: route intraperitoneal
Mus musculus [8] = assay: Antiinflammatory activity against carrageenan-induced paw oedema in mouse at 1 mg/kg, ip treated 30 mins before carrageenan challenge measured after 4 hrs by plethysmometry analysis; format: functional; details: route intraperitoneal
Mus musculus [9] = assay: Antiinflammatory activity against carrageenan-induced paw oedema in mouse at 1 mg/kg, ip treated 30 mins before carrageenan challenge measured after 1 hr by plethysmometry analysis; format: functional; details: route intraperitoneal
Mus musculus [10] = assay: Antiinflammatory activity against carrageenan-induced paw oedema in mouse at 1 mg/kg, ip treated 30 mins before carrageenan challenge measured after 2 hrs by plethysmometry analysis; format: functional; details: route intraperitoneal
Mus musculus [11] = assay: Antiinflammatory activity against carrageenan-induced paw oedema in mouse at 10 mg/kg, ip treated 30 mins before carrageenan challenge measured after 2 hrs by plethysmometry analysis; format: functional; details: route intraperitoneal
Mus musculus [12] = assay: Antinociceptive activity against formalin-induced nociception in ip dosed mouse assessed as inhibition of paw licking time administered 30 mins before formalin challenge measured after 30 mins; format: functional, organism-based
Mus musculus [13] = assay: Antiinflammatory activity in ip dosed mouse assessed as inhibition of acetic acid-induced abdominal constriction administered 30 mins before acetic acid challenge; format: functional, Abdomen
Mus musculus [14] = assay: Antiinflammatory activity against bradykinin-induced paw oedema in mouse at 10 mg/kg, ip treated 30 mins before bradykinin challenge measured after 15 mins by plethysmometry analysis; format: functional; details: route intraperitoneal
Mus musculus [15] = assay: Antiinflammatory activity in mouse assessed as neutrophil population in peritoneal exudate during carrageenan-induced inflammation at 10 mg/kg, ip administered 30 mins before carrageenan challenge measured after 4 hrs by myeloperoxidase activity assay; format: functional; details: route intraperitoneal
Mus musculus [16] = assay: Antiinflammatory activity against carrageenan-induced paw oedema in mouse at 10 mg/kg, ip treated 30 mins before carrageenan challenge measured after 5 hrs by plethysmometry analysis; format: functional; details: route intraperitoneal
Mus musculus [17] = assay: Antiinflammatory activity against carrageenan-induced paw oedema in mouse at 10 mg/kg, ip treated 30 mins before carrageenan challenge measured after 1 hr by plethysmometry analysis; format: functional; details: route intraperitoneal
RAW264.7 [18] = assay: Antiinflammatory activity in mouse RAW264.7 cells assessed as inhibition of LPS-induced PGE2 production at 100 uM after 24 hrs by enzyme immunoassay; format: functional; details: RAW264.7, 24 h
Mus musculus [19] = assay: Antinociceptive activity against formalin-induced nociception in mouse assessed as inhibition of paw licking time at 10 mg/kg, ip administered 30 mins before formalin challenge measured after 30 mins relative to control; format: functional; details: route intraperitoneal
Mus musculus [20] = assay: Antiinflammatory activity against carrageenan-induced paw oedema in mouse at 10 mg/kg, ip treated 30 mins before carrageenan challenge measured after 6 hrs by plethysmometry analysis; format: functional; details: route intraperitoneal
Mus musculus [21] = assay: Antiinflammatory activity against bradykinin-induced paw oedema in mouse at 10 mg/kg, ip treated 30 mins before bradykinin challenge measured after 60 mins by plethysmometry analysis; format: functional; details: route intraperitoneal
Mus musculus [22] = assay: Antiinflammatory activity in mouse peritoneal cavity assessed as reduction in cell migration during carrageenan-induced inflammation at 1 mg/kg, ip administered 30 mins before carrageenan challenge measured after 4 hrs; format: functional, organism-based; design: dose 1 mg/kg
Mus musculus [23] = assay: Neurotoxicity in mouse assessed as depression activity at 1 mg/kg, ip administered 15 mins before test measured after 60 seconds by rotarod test; format: toxicity, organism-based; design: dose 1 mg/kg, route intraperitoneal; details: in vivo, 0.25 h
[24] = Cytotoxicity against mouse RAW264.7 cells assessed as cell viability at 3 uM after 24 hrs by MTT assay; format: cell-based; details: read-out: Activity
Mus musculus [25] = assay: Antiinflammatory activity against bradykinin-induced paw oedema in mouse at 10 mg/kg, ip treated 30 mins before bradykinin challenge measured after 120 mins by plethysmometry analysis; format: functional; details: route intraperitoneal
RAW264.7 [26] = assay: Reduction in LPS-induced nitric oxide production in mouse RAW264.7 cells at 10 uM after 24 hrs by Griess assay (Rvb=74.2 +/- 1.6 uM); format: functional
Mus musculus [27] = assay: Neurotoxicity in mouse assessed as depression activity at 10 mg/kg, ip treated 15 mins before test measured after 60 seconds by rotarod test; format: toxicity, organism-based; design: dose 10 mg/kg, route intraperitoneal; details: in vivo, 0.25 h
Mus musculus [28] = assay: Antiinflammatory activity against bradykinin-induced paw oedema in mouse at 10 mg/kg, ip treated 30 mins before bradykinin challenge measured after 240 mins by plethysmometry analysis; format: functional; details: route intraperitoneal
Mus musculus [29] = assay: Antiinflammatory activity against bradykinin-induced paw oedema in mouse at 10 mg/kg, ip treated 30 mins before bradykinin challenge measured after 30 mins by plethysmometry analysis; format: functional; details: route intraperitoneal
Mus musculus [30] = assay: Antiinflammatory activity in mouse assessed as neutrophil population in peritoneal exudate during carrageenan-induced inflammation at 1 mg/kg, ip administered 30 mins before carrageenan challenge measured after 4 hrs by myeloperoxidase activity assay; format: functional; details: route intraperitoneal
Mus musculus [31] = assay: Antiinflammatory activity against carrageenan-induced paw oedema in mouse at 10 mg/kg, ip treated 30 mins before carrageenan challenge measured after 4 hrs by plethysmometry analysis; format: functional; details: route intraperitoneal
Mus musculus [32] = assay: Antiinflammatory activity in mouse peritoneal cavity assessed as reduction in cell migration during carrageenan-induced inflammation at 0.1 mg/kg, ip administered 30 mins before carrageenan challenge measured after 4 hrs; format: functional, organism-based; design: dose 0.1 mg/kg
Mus musculus [33] = assay: Antiinflammatory activity in mouse assessed as neutrophil population in peritoneal exudate during carrageenan-induced inflammation at 0.5 mg/kg, sc administered 4 hrs before carrageenan challenge measured after 4 hrs by myeloperoxidase activity assay; format: functional; details: route subcutaneous
RAW264.7 [34] = assay: Antiinflammatory activity in mouse RAW264.7 cells assessed as inhibition of LPS-induced PGE2 production at 3 uM after 24 hrs by enzyme immunoassay; format: functional; details: RAW264.7, 24 h
RAW264.7 [35] = assay: Reduction in LPS-induced nitric oxide production in mouse RAW264.7 cells at 1 uM after 24 hrs by Griess assay (Rvb=74.2 +/- 1.6 uM); format: functional
Mus musculus [36] = assay: Neurotoxicity in mouse assessed as muscular impairment at 10 mg/kg, ip administered 15 mins before test measured after 60 seconds by rotarod test; format: toxicity, organism-based; design: dose 10 mg/kg, route intraperitoneal; details: in vivo, 0.25 h
RAW264.7 [37] = assay: Antiinflammatory activity in mouse RAW264.7 cells assessed as inhibition of LPS-induced PGE2 production at 10 uM after 24 hrs by enzyme immunoassay; format: functional; details: RAW264.7, 24 h
RAW264.7 [38] = assay: Reduction in LPS-induced nitric oxide production in mouse RAW264.7 cells at 3 uM after 24 hrs by Griess assay (Rvb=74.2 +/- 1.6 uM); format: functional
Mus musculus [39] = assay: Antiinflammatory activity in mouse assessed as reduction in total cell count in peritoneal exudate during carrageenan-induced inflammation at 0.5 mg/kg, sc administered 4 hrs before carrageenan challenge measured after 4 hrs; format: functional; design: scale not given: the % may be the effect or the level left; details: route subcutaneous
[40] = Cytotoxicity against mouse RAW264.7 cells assessed as cell viability at 10 uM after 24 hrs by MTT assay; format: cell-based; details: read-out: Activity
Mus musculus [41] = assay: Antiinflammatory activity in mouse assessed as neutrophil population in peritoneal exudate during carrageenan-induced inflammation at 0.1 mg/kg, ip administered 30 mins before carrageenan challenge measured after 4 hrs by myeloperoxidase activity assay; format: functional; details: route intraperitoneal
Mus musculus [42] = assay: Neurotoxicity in mouse assessed as muscular impairment at 1 mg/kg, ip administered 15 mins before test measured after 60 seconds by rotarod test; format: toxicity, organism-based; design: dose 1 mg/kg, route intraperitoneal; details: in vivo, 0.25 h
[43] = Cytotoxicity against mouse RAW264.7 cells assessed as cell viability at 1 uM after 24 hrs by MTT assay; format: cell-based; details: read-out: Activity
Mus musculus [44] = assay: Antiinflammatory activity in mouse assessed as reduction in total cell count in peritoneal exudate during carrageenan-induced inflammation at 10 mg/kg, ip administered 30 mins before carrageenan challenge measured after 4 hrs; format: functional; design: scale not given: the % may be the effect or the level left; details: route intraperitoneal

COc1cc(/C=C/C(=O)/C=C/c2ccc(O)c(OC)c2)ccc1O
inhibition in vivo at 1 mg/kg (Mus musculus [1]): 15.1%
inhibition in vivo at 1 mg/kg (Mus musculus [2]): 3.25%
inhibition in vivo at 1 mg/kg (Mus musculus [3]): 2.5%
inhibition in vivo at 1 mg/kg (Mus musculus [4]): 10.1%
inhibition in vivo at 1 mg/kg (Mus musculus [5]): 5.04%
inhibition in vivo at 1 mg/kg (Mus musculus [6]): 2.2%
inhibition in vivo at 1 mg/kg (Mus musculus [7]): 4%
inhibition in vivo at 1 mg/kg (Mus musculus [8]): 17.4%
inhibition in vivo at 1 mg/kg (Mus musculus [9]): 14.6%
inhibition in vivo at 1 mg/kg (Mus musculus [10]): 22.9%

COc1ccc2c(c1)c(CC(=O)O)c(C)n2C(=O)c1ccc(Cl)cc1 [INDOMETHACIN]
inhibition in vivo at 1 mg/kg (Mus musculus [1]): 6.28%
inhibition in vivo at 1 mg/kg (Mus musculus [2]): 2.5%
inhibition in vivo at 1 mg/kg (Mus musculus [3]): 2.09%
inhibition in vivo at 1 mg/kg (Mus musculus [4]): 5.66%
inhibition in vivo at 1 mg/kg (Mus musculus [5]): 5%
inhibition in vivo at 1 mg/kg (Mus musculus [6]): 1.9%
inhibition in vivo at 1 mg/kg (Mus musculus [7]): 3.5%
inhibition in vivo at 1 mg/kg (Mus musculus [8]): 7.14%
inhibition in vivo at 1 mg/kg (Mus musculus [9]): 12.6%
inhibition in vivo at 1 mg/kg (Mus musculus [10]): 10.8%

COc1cc(/C=C/C(=O)/C=C/c2ccc(OC(C)=O)c(OC)c2)ccc1OC(C)=O
inhibition in vivo at 10 mg/kg (Mus musculus [11]): 12.1%
EC50 (Mus musculus [12]): 5.8 mg/kg
inhibition (INH) (Mus musculus [13]): 82.5%
ED50 (Mus musculus [13]; Mus musculus, Abdomen, ip): 7.6 mg/kg
inhibition in vivo at 10 mg/kg (Mus musculus [14]): 4.25%
Activity (Mus musculus [15]): 98%
inhibition in vivo at 10 mg/kg (Mus musculus [16]): 8.57%
inhibition in vivo at 10 mg/kg (Mus musculus [17]): 10.8%
inhibition at 100 µM (RAW264.7 [18]): 76%
inhibition in vivo at 10 mg/kg (Mus musculus [19]): 86%
inhibition in vivo at 10 mg/kg (Mus musculus [20]): 6.57%
inhibition in vivo at 10 mg/kg (Mus musculus [21]): 2.8%
Activity (Mus musculus [22]): inactive
Activity (Mus musculus [23]): Non-toxic
viability at 24 h, 3 µM [24]: > 90%
inhibition in vivo at 10 mg/kg (Mus musculus [25]): 2.5%
Activity (RAW264.7 [26]): 3 µM
Activity (Mus musculus [27]): Non-toxic
inhibition in vivo at 10 mg/kg (Mus musculus [28]): 2.18%
inhibition in vivo at 10 mg/kg (Mus musculus [29]): 3%
Activity (Mus musculus [30]): 98%
inhibition in vivo at 10 mg/kg (Mus musculus [31]): 8.67%
Activity (Mus musculus [32]): inactive
Activity (Mus musculus [33]): 98%
inhibition at 3 µM (RAW264.7 [34]): 48%
Activity (RAW264.7 [35]): 49 µM
Activity (Mus musculus [36]): Non-toxic
inhibition at 10 µM (RAW264.7 [37]): 71%
Activity (RAW264.7 [38]): 20 µM
Activity (Mus musculus [39]): 20%
viability at 24 h, 10 µM [40]: > 90%
Activity (Mus musculus [41]): 98%
Activity (Mus musculus [42]): Non-toxic
viability at 24 h, 1 µM [43]: > 90%
Activity (Mus musculus [44]): 50%

— ChEMBL document CHEMBL1153031, “Evaluation of anti-inflammatory effect of synthetic 1,5-bis(4-acetoxy-3-methoxyphenyl)-1,4-pentadien-3-one, HB2” (Bioorg Med Chem, 2009)
